Data taken from PubChem BioAssay (NCI).
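Results reflect a 48-hour exposure of cells in 96-well plates to compound at five concentrations. GI50 marks 50% less growth. At the TGI there is no net growth.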

Key:
Experiment in all cases: NCI-60 cell line screen, 48 h
[1] = tested on: UACC-62 melanoma
[2] = tested on: NCI-H226 lung
[3] = tested on: CAKI-1 renal
[4] = tested on: EKVX NSCLC
[5] = tested on: IGROV1 ovarian
[6] = tested on: OVCAR-5 ovarian
[7] = tested on: LOX IMVI melanoma
[8] = tested on: SNB-19 CNS
[9] = tested on: RXF 393 renal
[10] = tested on: SK-OV-3 ovarian

SMILES | GI50 [1] | TGI [1] | GI50 [2] | GI50 [3] | TGI [3] | GI50 [4] | TGI [4] | GI50 [5] [µM] | TGI [5] [µM] | GI50 [6] | TGI [6] | GI50 [7] | TGI [7] | GI50 [8] | TGI [8] | GI50 [9] | TGI [9] | GI50 [10] | TGI [10] | TGI [2]
COC(=O)[C@@H](C)C[C@H](Cc1ccccc1)NC(=O)c1nc([C@@H](C[C@H](C(C)C)N(C)C(=O)[C@@H](NC(=O)[C@H]2C[C@H](O)CCN2C)C(C)C)OC(C)=O)sc1C(C)C | 0.00243 µM | > 11.1 µM | 0.0257 µM | 0.115 µM | > 9.69 µM | 0.161 µM | > 11.1 µM | 0.00324 | > 11.1 | 0.0428 µM | > 11.1 µM | 0.00437 µM | > 5.38 µM | 0.00424 µM | > 11.1 µM | 0.025 µM | > 11.1 µM | 0.00646 µM | > 11.1 µM | –
COc1ccc2c(c1)[C@@H](NC(C)=O)CCc1cc(OC)c(OC)c(OC)c1-2 | – | > 26.8 µM | – | – | 99 µM | – | > 100 µM | – | > 100 | – | > 100 µM | – | > 75.6 µM | – | > 10.5 µM | – | > 8.58 µM | – | 4.1 µM | > 16.3 µM
CC(=O)OCC1C(=O)OCC1C(=O)N1Cc2cc3ccccc3nc2C1 (stereo not given) | – | 7.99 µM | – | – | 3.16 µM | – | 17.3 µM | – | 24 | – | 15.8 µM | – | 5.66 µM | – | 32.8 µM | – | 2.57 µM | – | 31.1 µM | 18.8 µM
O=C(O)/C=C/c1ccc(O)c(O)c1 | – | > 100 µM | – | – | > 100 µM | – | > 100 µM | – | > 100 | – | > 100 µM | – | > 100 µM | – | > 100 µM | – | > 100 µM | – | > 100 µM | > 100 µM
COc1ccc(C(=O)C(C(=O)CCC(=O)Nc2ccc(Cl)c(Cl)c2)c2ccc(OC)cc2)cc1 (stereo not given) | – | > 100 µM | – | – | > 100 µM | – | > 100 µM | – | > 100 | – | > 100 µM | – | > 100 µM | – | > 100 µM | – | > 100 µM | – | – | > 100 µM
N#CCCNc1nonc1-c1nc2ccccc2n1CC(=O)c1ccc(N)cc1 | < 0.0154 µM | > 100 µM | 0.098 µM | 0.0701 µM | > 100 µM | – | – | 0.0356 | > 100 | 0.0593 µM | > 100 µM | 0.0326 µM | > 100 µM | – | > 100 µM | 0.0129 µM | > 100 µM | 0.0189 µM | 0.0665 µM | > 100 µM
O=C([CH-]C(=O)c1ccccc1)c1ccccc1.O=C([CH-]C(=O)c1ccccc1)c1ccccc1.O=C([CH-]C(=O)c1ccccc1)c1ccccc1.[Ga+3] | 32.7 µM | > 100 µM | 26.1 µM | 67 µM | > 100 µM | – | – | 81.9 | > 100 | > 100 µM | > 100 µM | 18 µM | > 100 µM | > 100 µM | > 100 µM | 43.7 µM | > 100 µM | 63.5 µM | > 100 µM | > 100 µM
COc1ccc(C2COc3c(ccc(OC)c3OC)C2=O)cc1OC (stereo not given) | – | > 100 µM | – | – | > 100 µM | – | > 100 µM | – | > 100 | – | – | – | > 100 µM | – | > 100 µM | – | > 100 µM | – | > 100 µM | > 100 µM
C=CCc1cccc(C=O)c1O | 35.9 µM | > 100 µM | > 100 µM | > 100 µM | > 100 µM | – | – | > 100 | > 100 | > 100 µM | > 100 µM | 17.3 µM | > 100 µM | 14.6 µM | > 100 µM | 94 µM | > 100 µM | > 100 µM | > 100 µM | > 100 µM
CCN1CCN(CCC(=O)Nc2cccc(-n3cc(-c4ccncc4)c(-c4ccc(Cl)c(OC)c4)n3)c2)CC1 | 0.757 µM | 2.34 µM | 1.26 µM | – | – | 1.06 µM | 4.76 µM | 1.09 | 5.18 | 1.42 µM | 4.84 µM | 0.445 µM | 1.66 µM | 1.08 µM | 5.61 µM | 0.244 µM | 1.43 µM | 1.84 µM | 7.67 µM | 7.31 µM
Cc1ccc(S(=O)c2ccccc2[N+](=O)[O-])cc1 (stereo not given) | – | > 100 µM | – | – | > 100 µM | – | – | – | > 100 | – | > 100 µM | – | > 100 µM | – | > 100 µM | – | > 100 µM | – | > 100 µM | 85.9 µM
Cn1cc(C2NC(=O)c3ccccc3N2)c2ccccc21 (stereo not given) | – | – | – | – | > 100 µM | – | > 44.1 µM | – | > 100 | – | > 100 µM | – | > 89.8 µM | – | > 91 µM | – | 0.704 µM | – | 40.3 µM | 3.59 µM
N#CC(C(=O)CCCC(=O)Nc1ccccc1[N+](=O)[O-])c1c(Cl)cccc1Cl (stereo not given) | – | > 100 µM | – | – | > 100 µM | – | > 100 µM | – | > 100 | – | > 100 µM | – | – | – | > 100 µM | – | > 100 µM | – | > 100 µM | > 100 µM
O=S1OC(c2ccccc2)(c2ccccc2)C(c2ccccc2)(c2ccccc2)O1 | – | > 100 µM | – | – | – | – | > 100 µM | – | > 100 | – | > 100 µM | – | > 100 µM | – | > 100 µM | – | > 100 µM | – | > 100 µM | > 100 µM
CC(C)(C)CC(C)(C)c1ccc(OCCO)cc1 | 3.51 µg/mL | 15.9 µg/mL | 2.44 µg/mL | 0.678 µg/mL | 8.37 µg/mL | 1.34 µg/mL | 30.1 µg/mL | – | – | 11.9 µg/mL | 27.5 µg/mL | 2.19 µg/mL | 11.2 µg/mL | 6.58 µg/mL | 19.5 µg/mL | 8.58 µg/mL | 18.1 µg/mL | 11.2 µg/mL | 28.6 µg/mL | 15.8 µg/mL
C=C(CO)C(=O)OC1CC(=C)C2CC(O)C(C)C2C2OC(=O)C(=C)C12 (stereo not given) | – | 35.3 µM | – | – | 36.6 µM | – | > 100 µM | – | 39.3 | – | > 100 µM | – | > 100 µM | – | 61.6 µM | – | 36.4 µM | – | > 100 µM | –
COc1nc(NC2OC(COC(C)=O)C(OC(C)=O)C(OC(C)=O)C2OC(C)=O)c(N=CC=Nc2c(NC3OC(COC(C)=O)C(OC(C)=O)C(OC(C)=O)C3OC(C)=O)nc(OC)[nH]c2=O)c(=O)[nH]1 (stereo not given) | – | > 100 µM | – | – | > 100 µM | – | > 100 µM | – | > 100 | – | > 100 µM | – | > 100 µM | – | > 100 µM | – | – | – | > 100 µM | > 100 µM
